Reference: US7871805B2, “Glucose dehydrogenase” (Toyo Boseki Kabushiki Kaisha, priority 2006, dated 2011)
Like-named read-outs stand apart in the source and are kept apart here.

How the values were obtained:
[1] = test system: GDH derived from NBRC6231; test: Substrate specificity of purified GDH (DCPIP activity assay); format: biochemical, Penicillium lilacinoechinulatum; conditions: for Relative activity: substrate final concentration 4 mM, activity using glucose as substrate made 100%; for action of enzyme upon substrate (in words): substrate 4 mM
Method: (§1) The present invention is also characterized by high substrate specificity, the action upon maltose is less than 1% of the action upon glucose, and the action upon galactose is less than 2% of the action upon glucose. The action referred to herein indicates the GDH activity at a substrate concentration of 4 mM, it is measured according to Test Example described later, and in a reaction solution composition used, for the substrate concentration, the final concentration is adjusted to 4 mM.
(§2) A reaction reagent is made by mixing 15.8 mL of the PIPES buffer, 0.2 mL of the DCPIP solution and 4 mL of the D-glucose solution.
(§3) The reaction reagent (2.9 mL) is preliminarily heated at 37° C. for 5 minutes. The GDH solution (0.1 mL) is added and gently mixed, subsequently the change of absorbance at 600 nm is recorded for 5 minutes using a spectrophotometer controlled to 37° C. using water as a control, and the change of absorbance per one minute (ΔODTEST) is calculated from a linear portion of the record. The solvent in which GDH will be dissolved in place of the blinded GDH solution is added to the reagent mixture, and the change of absorbance (ΔODBLANK) per one minute is measured. The GDH activity is calculated from these values according to the following formula. One unit (U) in the GDH activity is defined as the amount of the enzyme which reduces 1 μmol DCPIP for one minute in the presence of 200 mM D-glucose. Activity (U/mL)=[—(ΔODTEST−ΔODBLANK)×3.0×dilution scale]/(16.3×0.1×1.0)
(§4) In order to know the substrate specificity of the purified GDH solutions derived from NBRC6231 and NBRC32032 obtained in Example 1, the activity was measured using the reaction reagent in which the substance shown in Table had been dissolved at a final concentration of 4 mM.

[2] = test system: GDH derived from NBRC32032; test: as above; format: biochemical, Penicillium italicum; conditions: for Relative activity: substrate final concentration 4 mM, activity using glucose as substrate made 100%; for action of enzyme upon substrate (in words): substrate 4 mM
Method: as §1, §2, §3, §4

[3] = test system: GDH derived from NBRC32032; test: Effects of chemicals on GDH activity; format: biochemical, Penicillium italicum
[4] = test system: GDH derived from NBRC6231; test: Effects of chemicals on GDH activity; format: biochemical, Penicillium lilacinoechinulatum
[5] = 2 mM, inhibited = 10% or more activity lowering, strong = 50% or more, GDH from NBRC6231
[6] = additive final concentration 2 mM, activity with no chemical made 100, GDH from NBRC6231
[7] = 2 mM, inhibited = 10% or more activity lowering, strong = 50% or more, GDH from NBRC32032
[8] = additive final concentration 2 mM, activity with no chemical made 100, GDH from NBRC32032

Row | Compound | Relative activity [1] | Relative activity [2] | Relative activity [3] | Relative activity [4, 6] | other results
1 | OC[C@H]1O[C@H](O[C@H]2[C@H](O)[C@@H](O)C(O)O[C@@H]2CO)[C@H](O)[C@@H](O)[C@@H]1O (mixture of isomers) [Maltose] | 0.5% | 0.2% | – | – | –
2 | O=CC[C@@H](O)[C@H](O)[C@H](O)CO [2-deoxy-D-glucose] | 14.3% | 17.2% | – | – | action of enzyme upon substrate (in words) [1]: acted upon; action of enzyme upon substrate (in words) [2]: acted upon
3 | O=[N+]([O-])[O-].[Ag+] [AgNO3, silver nitrate] | – | – | 15.0 | 20.9 | inhibitory effect (in words) [3]: strong inhibitory effect; inhibitory effect (in words) [4, 5]: strong inhibitory effect
4 | O=C[C@@H](O)[C@H](O)[C@H](O)CO [Arabinose] | 0.2% | 0.2% | – | – | –
5 | CC(=O)[O-].CC(=O)[O-].[Ba+2] [Ba(OAc)2] | – | – | 106 | 106 | –
6 | OB(O)O [Borate] | – | – | 102 | 111 | –
7 | [Ca+2].[Cl-].[Cl-] [CaCl2] | – | – | 103 | 103 | –
8 | CC(=O)[O-].CC(=O)[O-].[Cd+2] [Cd(OAc)2, cadmium acetate] | – | – | 41.4 | 41.0 | inhibitory effect (in words) [3]: strong inhibitory effect; inhibitory effect (in words) [4, 5]: strong inhibitory effect
9 | [Cl-].[Cl-].[Co+2] [CoCl2] | – | – | 102 | – | Relative activity [4]: 94.1
10 | O=S(=O)([O-])[O-].[Cu+2] [CuSO4, copper sulfate] | – | – | 4.5 | 2.2 | inhibitory effect (in words) [3]: strong inhibitory effect; inhibitory effect (in words) [4, 5]: strong inhibitory effect
11 | O=C(O)CN(CCN(CC(=O)O)CC(=O)O)CC(=O)O [EDTA] | – | – | 104 | – | Relative activity [4]: 113
12 | [Cl][Fe]([Cl])[Cl] [FeCl3, iron chloride (III)] | – | – | 77.5 | – | inhibitory effect (in words) ([3]; 2 mM): inhibited; Relative activity [4]: 106
13 | O=C(CO)[C@@H](O)[C@H](O)[C@H](O)CO [Fructose] | 0.2% | 0.3% | – | – | –
14 | O=C[C@H](O)[C@@H](O)[C@@H](O)[C@H](O)CO [Galactose] | 1.0% | 0.6% | – | – | –
15 | OCC(O)CO [Glycerin] | 0.1> % | 1.7% | – | – | –
16 | NO [Hydroxylamine] | – | – | – | 81.5 | inhibitory effect (in words) [3, 7]: inhibitory effect; Relative activity [3, 8]: 79.1; inhibitory effect (in words) [4, 5]: inhibitory effect
17 | NC(=O)CI [Iodoacetamide] | – | – | 101 | – | Relative activity [4]: 111
18 | OC[C@H]1O[C@H](O[C@H]2[C@H](O)[C@@H](O)[C@@H](O[C@H]3[C@H](O)[C@@H](O)[C@@H](O[C@H]4[C@H](O)[C@@H](O)C(O)O[C@@H]4CO)O[C@@H]3CO)O[C@@H]2CO)[C@H](O)[C@@H](O)[C@@H]1O (stereo partly shown) [Maltotetraose] | 0.1> % | 1.6% | – | – | –

Row | Compound | Relative activity [1] | Relative activity [2] | Relative activity [3] | Relative activity [4, 6] | other results
19 | OC[C@H]1O[C@@](CO)(O[C@H]2O[C@H](CO)[C@@H](O)[C@H](O)[C@H]2O)[C@@H](O[C@H]2O[C@H](CO)[C@@H](O)[C@H](O)[C@H]2O)[C@@H]1O [Melezitose] | 0.2% | 0.5% | – | – | –
20 | [Cl-].[Cl-].[Mg+2] [MgCl2] | – | – | 102 | 99.7 | –
21 | [Cl][Mn][Cl] [MnCl2] | – | – | 99.1 | 93.4 | –
22 | O=C(O)CI [Monoiodoacetic acid] | – | – | 73.3 | – | inhibitory effect (in words) [3]: inhibitory effect; Relative activity [4]: 68.7; inhibitory effect (in words) [4]: inhibitory effect
23 | CCN1C(=O)C=CC1=O [N-ethylmaleimide] | – | – | – | 86.8 | inhibitory effect (in words) [3, 7]: inhibitory effect; Relative activity [3, 8]: 87.8; inhibitory effect (in words) [4, 5]: inhibitory effect
24 | [F-].[Na+] [NaF] | – | – | 102 | 111 | –
25 | [N-]=[N+]=[N-].[Na+] [NaN3, sodium azide] | – | – | 97.8 | 89.3 | inhibitory effect (in words) [4, 5]: inhibited
26 | [Cl][Ni][Cl] [NiCl2] | – | – | 101 | 96.6 | –
27 | O=C[C@H](O)[C@H](O)[C@H](O)CO [Ribose] | 0.1> % | 0.2% | – | – | –
28 | O=C(CO)[C@H](O)[C@@H](O)[C@H](O)CO [Sorbose] | 0.1> % | 0.5% | – | – | –
29 | OC[C@H]1O[C@@](CO)(O[C@H]2O[C@H](CO)[C@@H](O)[C@H](O)[C@H]2O)[C@@H](O)[C@@H]1O [Sucrose] | 0.6% | 1.1% | – | – | –
30 | OC[C@H]1O[C@H](O[C@H]2O[C@H](CO)[C@@H](O)[C@H](O)[C@H]2O)[C@H](O)[C@@H](O)[C@@H]1O [Trehalose] | 0.3% | 0.1> % | – | – | –
31 | O=C[C@H](O)[C@@H](O)[C@H](O)CO [Xylose] | 10.1% | 10.4% | – | – | action of enzyme upon substrate (in words) [1]: acted upon; action of enzyme upon substrate (in words) [2]: acted upon
32 | [Cl-].[Cl-].[Zn+2] [ZnCl2] | – | – | 75.1 | 76.2 | –
33 | c1cnc2c(c1)ccc1cccnc12 [o-phenanthroline] | – | – | 103 | – | Relative activity [4]: 106
34 | c1ccc(-c2ccccn2)nc1 [α,α′-dipyridyl] | – | – | 102 | – | Relative activity [4]: 109
35 | Maltotriose | 0.2% | 1.0% | – | – | –
